Literature values in US20080125428A1, “Cancer Treatment Method” (priority 2004, published 2008).

System: tumor cells overexpressing EGFR or erbB2
Details: Rusnak et al., 2001b, Xia et al., 2002

CS(=O)(=O)CCNCc1ccc(-c2ccc3ncnc(Nc4ccc(OCc5cccc(F)c5)c(Cl)c4)c3c2)o1 [GW572016, N-{3-chloro-4-[(3-fluorobenzyl)oxy]phenyl}-6-[5-({[2-(methanesulphonyl)ethyl]amino}methyl)-2-furyl]-4-quinazolinamine]
kinase inhibition in human xenograft studies: dose-dependent kinase inhibition
selectivity for tumor cells overexpressing EGFR or erbB2 (human xenograft studies): selectively inhibits tumor cells overexpressing EGFR or erbB2
